Laboratory results reported in patent US20090203753A1, “7-(2-amino-1-hydroxy-ethyl)-4-hydroxybenzothiazol-2(3H)-one-derivatives as beta2 adrenoreceptor agonists” (AstraZeneca AB, priority 2005, published 2009).
Counter-ions that a name gives are not always drawn.

Assays:
β2 receptor [1] = target: T1, β2 receptor (Homo sapiens, UniProt P07550); experiment: β2 mediated cAMP production in H292 cells, AlphaScreen cAMP detection (10 minutes with test compound); type: cell-based; settings: for EC50: cAMP, 10 minutes incubation with compound, 300 μM rolipram; for Intrinsic Activity: fraction relative to the maximum activity determined for formoterol, 10 minutes incubation
T1 construct: endogenous in cells; host or cells: H292 cells
T1 sequence (P07550 whole entry): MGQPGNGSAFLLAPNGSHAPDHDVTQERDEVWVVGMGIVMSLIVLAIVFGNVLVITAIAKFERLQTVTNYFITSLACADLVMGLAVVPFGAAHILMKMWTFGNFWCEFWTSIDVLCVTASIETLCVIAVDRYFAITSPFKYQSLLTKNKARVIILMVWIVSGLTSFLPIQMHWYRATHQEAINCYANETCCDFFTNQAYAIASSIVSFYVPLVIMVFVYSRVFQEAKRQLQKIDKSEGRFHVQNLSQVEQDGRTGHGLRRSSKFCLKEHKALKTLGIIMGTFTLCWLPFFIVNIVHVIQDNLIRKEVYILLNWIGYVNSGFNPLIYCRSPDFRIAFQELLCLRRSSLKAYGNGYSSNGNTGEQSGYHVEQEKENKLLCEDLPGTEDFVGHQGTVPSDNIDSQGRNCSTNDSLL
Protocol: H292 cells were grown in RPMI (Roswell Park Memorial Institute) medium containing, 10% (v/v) FBS (foetal bovine serum) and 2 mM L-glutamine. Cells were grown in 225 cm2 flasks containing 25 mL media in a humidified incubator at 37° C., 5% CO2. Cells were harvested from the flask and passaged at a 1 in 10 dilution once per week.
The media from flasks containing H292 cells was removed, rinsed with 10 mL PBS (phosphate buffered saline) and replaced with 10 mL Accutase™ cell detachment solution. Flasks were incubated for 15 minutes in a humidified incubator at 37° C., 5% CO2. The cell suspension was counted and the cells re-suspended in RPMI media (containing 10% (v/v) FBS and 2 mM L-glutamine) at 0.05×10^6 cells per mL. 5000 cells in 100 μL were added to each well of a tissue-culture-treated 96-well plate and the cells incubated overnight in a humidified incubator at 37° C., 5% CO2. The culture media was removed, washed twice with 100 μL assay buffer and replaced with 50 μL assay buffer. Cells were rested at room temperature for 20 minutes after which time 25 μL of rolipram (1.2 mM made up in assay buffer containing 2.4% (v/v) dimethylsulphoxide) was added. Cells were incubated with rolipram for 10 minutes after which time test compounds (made up as ×4 concentrated stocks in assay buffer containing 4% (v/v) dimethylsulphoxide) were added and the cells were incubated for 10 minutes at room temperature. Final rolipram concentration in the assay was 300 μM and final vehicle concentration was 1.6% (v/v) dimethylsulphoxide. The reaction was stopped by removing supernatants, washing once with 100 μL assay buffer and replacing with 50 μL lysis buffer. The cell monolayer was frozen at −80° C. for 30 minutes (or overnight).
(§1) The concentration of cAMP (cyclic adenosine monophosphate) in the cell lysate was determined using the AlphaScreen™ methodology. The frozen cell plate was thawed for 20 minutes on a plate shaker then 10 μL of the cell lysate was transferred to a 96-well white plate. 40 μL of mixed AlphaScreen™ detection beads (containing equal volumes of donor beads (pre-incubated with biotinylated cAMP in the dark for 30 minutes) and acceptor beads), was added to each well and the plate incubated at room temperature for 10 hours in the dark. The AlphaScreen™ signal was measured using an EnVision spectrophotometer (Perkin-Elmer Inc.) with the recommended manufacturer's settings. cAMP concentrations were determined by reference to a calibration curve determined in the same experiment using standard cAMP concentrations (made up in lysis buffer in a 96-well tissue-culture-treated plate and frozen/thawed alongside the test samples) and detected using the same protocol. Concentration response curves for agonists were constructed to determine both the pEC50 and Intrinsic Activity.

[2] = target: T2, recombinant human Dopamine Subtype D2s receptors (Homo sapiens, UniProt P14416); experiment: Dopamine D2 selectivity assay, [3H]-spiperone binding to membranes; settings: read-out: D2 bind pIC50 (converted)
T2 construct: purchased Perkin Elmer
T2 sequence (P14416 1-414 isoform P14416-2): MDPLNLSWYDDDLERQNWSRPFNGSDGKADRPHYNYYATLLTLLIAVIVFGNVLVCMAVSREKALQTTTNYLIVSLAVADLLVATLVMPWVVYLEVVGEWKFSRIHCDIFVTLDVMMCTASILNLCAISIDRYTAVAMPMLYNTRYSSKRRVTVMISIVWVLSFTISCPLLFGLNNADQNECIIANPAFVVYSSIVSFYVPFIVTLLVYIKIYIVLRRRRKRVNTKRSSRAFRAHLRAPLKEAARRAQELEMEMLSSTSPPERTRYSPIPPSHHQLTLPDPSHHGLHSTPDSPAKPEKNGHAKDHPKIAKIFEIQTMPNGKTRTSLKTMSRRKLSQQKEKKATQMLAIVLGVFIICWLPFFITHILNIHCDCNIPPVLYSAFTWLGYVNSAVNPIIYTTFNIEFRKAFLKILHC
Protocol: (§2) Membranes containing recombinant human Dopamine Subtype D2s receptors were obtained from Perkin Elmer. These were diluted in Assay Buffer (50 mM HEPES, 1 nM EDTA, 120 mM NaCl, 0.1% gelatin, pH 7.4) to provide a final concentration of membranes that gave a clear window between maximum and minimum specific binding.
(§3) Assays were performed in U-bottomed 96-well polypropylene plates. 30 μL [^3H]-spiperone (0.16 nM final concentration) and 30 μL of test compound (10× final concentration) were added to each test well. For each assay plate 8 replicates were obtained for [^3H]-spiperone binding in the presence of 30 μL vehicle (10% (v/v) DMSO in Assay Buffer; defining maximum binding) or 30 μL Haloperidol (10 μM final concentration; defining non-specific binding (NSB)). Membranes were then added to achieve a final volume of 300 μL. The plates were incubated for 2 hours at room temperature and then filtered onto PEI coated GF/B filter plates, pre-soaked for 1 hour in Assay Buffer, using a 96-well plate Tomtec cell harvester. Five washes with 250 μL wash buffer (50 mM HEPES, 1 mM EDTA, 120 mM NaCl, pH 7.4) were performed at 4° C. to remove unbound radioactivity. The plates were dried then sealed from underneath using Packard plate sealers and MicroScint-O (50 μL) was added to each well. The plates were sealed (TopSeal A) and filter-bound radioactivity was measured with a scintillation counter (TopCount, Packard BioScience) using a 3-minute counting protocol.
(§4) Total specific binding (B0) was determined by subtracting the mean NSB from the mean maximum binding. NSB values were also subtracted from values from all other wells.

β2 receptor [3] = target: T1, β2 receptor; experiment: Alternative adrenergic β2 mediated cAMP production in H292 cells (60 minutes with test compound); type: cell-based; settings: for EC50: cAMP, 60 minutes incubation with compound, 300 μM rolipram, read-out: β2 pEC50 (converted); for β2 Int Act: fraction relative to the maximum activity determined for formoterol, 60 minutes incubation
Protocol: Alternative Adrenergic (β2 Mediated cAMP Production
H292 cells were grown in 225 cm2 flasks incubator at 37° C., 5% CO2 in RPMI medium containing, 10% (v/v) FBS (foetal bovine serum) and 2 mM L-glutamine.
Adherent H292 cells were removed from tissue culture flasks by treatment with Accutase™ cell detachment solution for 15 minutes. Flasks were incubated for 15 minutes in a humidified incubator at 37° C., 5% CO2. Detached cells were re-suspended in RPMI media (containing 10% (v/v) FBS and 2 mM L-glutamine) at 0.05×10^6 cells per mL. 5000 cells in 100 μL were added to each well of a tissue-culture-treated 96-well plate and the cells incubated overnight in a humidified incubator at 37° C., 5% CO2. The culture media was removed and cells were washed twice with 100 μL assay buffer and replaced with 50 μL assay buffer (HBSS solution containing 10 mM HEPES pH7.4 and 5 mM glucose). Cells were rested at room temperature for 20 minutes after which time 25 μL of rolipram (1.2 mM made up in assay buffer containing 2.4% (v/v) dimethylsulphoxide) was added. Cells were incubated with rolipram for 10 minutes after which time test compounds were added and the cells were incubated for 60 minutes at room temperature. The final rolipram concentration in the assay was 300 μM and final vehicle concentration was 1.6% (v/v) dimethylsulphoxide. The reaction was stopped by removing supernatants, washing once with 100 μL assay buffer and replacing with 50 μL lysis buffer. The cell monolayer was frozen at −80° C. for 30 minutes (or overnight).
as §1, with “using” for “using the”, “pre-incubated” for “(containing equal volumes of donor beads (pre-incubated”, “cAMP,” for “cAMP in the dark for 30 minutes) and acceptor beads),”, “concentrations.” for “concentrations (made up in lysis buffer in a 96-well tissue-culture-treated plate and frozen/thawed alongside the test samples) and detected using the same protocol.”, “constructed and data was fitted to a four parameter logistic equation” for “constructed”, “Activity. […]” for “Activity.”

[4] = target: T3, recombinant human adrenergic beta 1 receptors (Homo sapiens, UniProt P08588); experiment: Adrenergic β1 selectivity assay, [125I]-Iodocyanopindolol binding to membranes; settings: inhibition of [125I]-Iodocyanopindolol binding (0.036 nM); read-out: β1 bind pIC50 (converted)
T3 construct: purchased Euroscreen
T3 sequence (P08588 whole entry): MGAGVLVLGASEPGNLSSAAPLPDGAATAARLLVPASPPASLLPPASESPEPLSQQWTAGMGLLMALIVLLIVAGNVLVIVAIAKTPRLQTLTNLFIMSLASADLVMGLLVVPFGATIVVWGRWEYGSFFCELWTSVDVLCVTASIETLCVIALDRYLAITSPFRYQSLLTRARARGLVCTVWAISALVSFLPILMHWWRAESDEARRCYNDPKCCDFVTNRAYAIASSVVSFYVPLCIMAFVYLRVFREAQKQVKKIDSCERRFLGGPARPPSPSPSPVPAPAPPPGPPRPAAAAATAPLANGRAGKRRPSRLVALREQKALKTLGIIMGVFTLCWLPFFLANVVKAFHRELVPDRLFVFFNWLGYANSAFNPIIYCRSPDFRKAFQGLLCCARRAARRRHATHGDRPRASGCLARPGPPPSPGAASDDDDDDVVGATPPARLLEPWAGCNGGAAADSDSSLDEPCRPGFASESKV
Protocol: as §2, with “adrenergic beta 1” for “Dopamine Subtype D2s”, “Euroscreen.” for “Perkin Elmer.”, “mM” for “nM”
as §3, with “10” for “30”, “[^125I]-Iodocyanopindolol (0.036” for “[^3H]-spiperone (0.16”, “[^125I]-Iodocyanopindolol” for “[^3H]-spiperone”, “Propranolol” for “Haloperidol”, “100” for “300”
as §4

[5] = target: T4, recombinant human α1D receptor (Homo sapiens, UniProt P25100); experiment: Adrenergic α1D selectivity assay, [3H]-prazosin binding to HEK293 membranes; settings: read-out: α1 bind pIC50 (converted)
T4 construct: expressed in transfected cells; host or cells: HEK293
T4 sequence (P25100 1-572): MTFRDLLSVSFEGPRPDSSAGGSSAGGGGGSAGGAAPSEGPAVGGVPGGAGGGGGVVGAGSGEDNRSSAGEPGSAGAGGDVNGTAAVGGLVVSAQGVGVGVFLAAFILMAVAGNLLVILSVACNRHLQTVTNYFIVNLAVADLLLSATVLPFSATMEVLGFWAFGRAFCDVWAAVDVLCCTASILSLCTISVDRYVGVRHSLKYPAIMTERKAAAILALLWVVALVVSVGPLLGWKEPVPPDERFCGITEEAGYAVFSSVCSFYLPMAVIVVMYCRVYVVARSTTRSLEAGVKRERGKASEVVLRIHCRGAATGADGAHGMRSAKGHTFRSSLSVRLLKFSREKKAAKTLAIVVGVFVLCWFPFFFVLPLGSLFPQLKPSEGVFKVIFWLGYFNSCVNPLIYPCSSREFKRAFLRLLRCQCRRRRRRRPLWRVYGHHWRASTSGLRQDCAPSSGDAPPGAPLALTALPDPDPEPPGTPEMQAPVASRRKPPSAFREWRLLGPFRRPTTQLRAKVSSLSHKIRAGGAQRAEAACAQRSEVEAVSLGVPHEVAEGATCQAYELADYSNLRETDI
Protocol: Membranes were prepared from human embryonic kidney 293 (HEK293) cells expressing recombinant human α1D receptor. These were diluted in Assay Buffer (50 mM HEPES, 1 mM EDTA, 0.1% gelatin, pH 7.4) to provide a final concentration of membranes that gave a clear window between maximum and minimum specific binding.
as §3, with “10” for “30”, “[^3H]-prazosin (0.3” for “[^3H]-spiperone (0.16”, “[^3H]-prazosin” for “[^3H]-spiperone”, “BMY7378” for “Haloperidol”, “100” for “300”, “EDTA,” for “EDTA, 120 mM NaCl,”
as §4

Structure (SMILES)	EC50 (β2 receptor [1]) [nM]	Intrinsic Activity (β2 receptor [1])	IC50 [2] [nM]	EC50 (β2 receptor [3]) [nM]	β2 Int Act (β2 receptor [3])	IC50 [4] [nM]	IC50 [5] [nM]
CCCCN(CCNC[C@H](O)c1ccc(OCc2ccccc2)c2[nH]c(=O)sc12)C(=O)CCOCCc1ccccc1 [Example 1, N-[2-[2-(4-Benzyloxy-2-oxo-3H-benzothiazol-7-yl)-(2R)-2-hydroxy-ethyl]aminoethyl]-N-butyl-3-phenethyloxy-propanamide]	20	0.7	–	–	–	–	–
O=C(CCOCCc1ccccc1)N(CCNC[C@H](O)c1ccc(O)c2[nH]c(=O)sc12)CCc1ccccc1 [Example 4, N-(2-{[(2R)-2-Hydroxy-2-(4-hydroxy-2-oxo-2,3-dihydro-1,3-benzothiazol-7-yl)ethyl]amino}ethyl)-3-(2-phenylethoxy)-N-(2-phenylethyl)propanamide]	1.26	1.1	–	1.26	0.9	3.16	–
CN(CCNC[C@H](O)c1ccc(O)c2[nH]c(=O)sc12)C(=O)CCOCCc1ccccc1 [Example 5, N-(2-{[(2R)-2-Hydroxy-2-(4-hydroxy-2-oxo-2,3-dihydro-1,3-benzothiazol-7-yl)ethyl]amino}ethyl)-N-methyl-3-(2-phenylethoxy)propanamide Trifluoroacetate]	0.316	1.0	–	0.2	1	12.6	–

The next lines start with the values.

EC50 (β2 receptor [1]) [nM]	Intrinsic Activity (β2 receptor [1])	IC50 [2] [nM]	EC50 (β2 receptor [3]) [nM]	β2 Int Act (β2 receptor [3])	IC50 [4] [nM]	IC50 [5] [nM]	Structure (SMILES)
–	–	> 10000	1	0.9	6.31	2510	CCCCN(CCNC[C@H](O)c1ccc(O)c2[nH]c(=O)sc12)C(=O)CCOCCc1ccccc1.Cl [Example 2, N-Butyl-N-(2-{[(2R)-2-hydroxy-2-(4-hydroxy-2-oxo-2,3-dihydro-1,3-benzothiazol-7-yl)ethyl]amino}ethyl)-3-(2-phenylethoxy)propanamide Hydrochloride]
–	–	2510	2	0.9	631	2510	CCN(CC)CCN(CCNC[C@H](O)c1ccc(O)c2[nH]c(=O)sc12)C(=O)CCOCCc1cccc2ccccc12 [Example 6, N-[2-(Diethylamino)ethyl]-N-(2-{[(2R)-2-hydroxy-2-(4-hydroxy-2-oxo-2,3-dihydro-1,3-benzothiazol-7-yl)ethyl]amino}ethyl)-3-[2-(1-naphthyl)ethoxy]propanamide]
